Experimental data taken from ChEMBL document CHEMBL3997778, “β-Dihydroagarofuran-Type Sesquiterpenes from the Seeds of Celastrus monospermus and Their Lifespan-Extending Effects on the Nematode Caenorhabditis elegans” (2016).

Test system: Caenorhabditis elegans
Assay: Increase in life span of Caenorhabditis elegans Bristol N2 at late L4 larval stage at 100 uM in presence of 5-fluorodesoxyuridine relative to control
Format: functional

Compound	ILS at 100 µM [%]
CO[C@H]1C[C@@H]2CC[C@@H](C)[C@@](O)(O2)C(=O)C(=O)N2CCCC[C@H]2C(=O)O[C@H]([C@H](C)C[C@@H]2CC[C@@H](O)[C@H](OC)C2)CC(=O)[C@H](C)/C=C(\C)[C@@H](O)[C@@H](OC)C(=O)[C@H](C)C[C@H](C)/C=C/C=C/C=C/1C [SIROLIMUS]	38

Test system: Caenorhabditis elegans
Assay: Increase in life span of Caenorhabditis elegans Bristol N2 at late L4 larval stage at 50 uM in presence of 5-fluorodesoxyuridine relative to control
Format: functional

Compound	ILS at 50 µM [%]
CC(=O)O[C@@H]1[C@@H]2[C@@H](OC(C)=O)[C@]3(OC2(C)C)[C@H](C)CC[C@H](O)[C@@]3(C)[C@@H]1OC(=O)c1ccccc1	16
CC(=O)O[C@H]1[C@@H]2[C@@H](OC(C)=O)[C@]3(OC2(C)C)[C@H](C)C[C@@H](OC(C)=O)[C@H](OC(C)=O)[C@@]3(C)[C@H]1OC(=O)c1ccccc1	15
CC(=O)O[C@@H]1[C@@H]2[C@@H](OC(C)=O)[C@]3(OC2(C)C)[C@H](C)C[C@@H](OC(C)=O)[C@H](OC(C)=O)[C@@]3(C)[C@@H]1OC(=O)c1ccccc1	17
CC(=O)OC[C@]12[C@@H](OC(=O)c3ccccc3)[C@@H](OC(C)=O)[C@@H]3[C@@H](OC(C)=O)[C@]1(OC3(C)C)[C@H](C)C[C@H](OC(C)=O)[C@@H]2OC(C)=O	16
CC(=O)O[C@H]1[C@@H]2C[C@]3(OC2(C)C)[C@H](C)C[C@H](OC(C)=O)[C@@H](OC(C)=O)[C@@]3(C)[C@H]1OC(=O)c1ccccc1	12
CC(=O)O[C@H]1[C@@H]2[C@@H](OC(=O)c3ccccc3)[C@]3(OC2(C)C)[C@H](C)C[C@@H](OC(C)=O)[C@H](OC(C)=O)[C@@]3(C)[C@H]1OC(=O)c1ccccc1	28
CC(=O)O[C@@H]1[C@@H]2[C@@H](OC(C)=O)[C@]3(OC2(C)C)[C@H](C)CC(=O)[C@H](OC(C)=O)[C@@]3(C)[C@@H]1OC(=O)c1ccccc1	37
CC(=O)O[C@@H]1[C@@H]2[C@@H](OC(C)=O)[C@]3(OC2(C)C)[C@H](C)C[C@H](OC(=O)/C=C/c2ccccc2)[C@H](OC(C)=O)[C@@]3(C)[C@@H]1OC(=O)c1ccccc1	15
CC(=O)O[C@@H]1[C@H]2C[C@H](OC(=O)c3ccccc3)[C@]3(C)[C@@H](OC(C)=O)[C@H](OC(C)=O)C[C@@H](C)[C@@]13OC2(C)C	14
